Test results as given in patent US20050113286A1, “Methods for treating congestive heart failure” (priority 2002, published 2005).

What was measured:
[1] = system: patients with chronic decompensated HF; test: FUSION I: clinical outcomes (death, hospitalization, days alive and out of hospital) through 12 weeks; assay type: in vivo, human
Method: In this multicenter, open-label, pilot study, patients were randomly assigned to 1 of 3 treatment groups in a 1:1:1 ratio: (1) usual care, as determined by the investigating physician; (2) usual care plus nesiritide 0.005 μg/kg/min given for 4 to 6 hours, preceded by a 1.0-μg/kg bolus; or (3) usual care plus nesiritide 0.01 μg/kg/min given for 4 to 6 hours, preceded by a 2.0-μg/kg bolus (FIG. 1). The study treatment period was 12 weeks with an additional 4 weeks of follow-up. Nesiritide (Natrecor®) was supplied by Scios Inc., Fremont, Calif. Informed consent was obtained from each patient prior to enrollment, and the Ethics Committee of each institution prospectively approved the study.
The primary goal of this open-label study was to assess the safety and tolerability of different nesiritide doses administered as serial outpatient infusions. Safety and tolerability were measured through investigator reporting of adverse events (AEs), serious AEs, discontinuations of study infusions, laboratory assessments, and vital signs. An AE was defined as any new onset or worsening of any medical condition since study entry. A serious AE were those AEs, which lead to death, hospitalization, or prolonged hospitalization. The effect of nesiritide infusions on renal function was also monitored as a safety variable, with renal AEs defined as increased blood urea nitrogen (BUN) or serum creatinine levels (determined by investigator's discretion), onset of oliguria, or occurrence of acute renal failure. Clinical events were followed to further evaluate safety and tolerability.
To characterize treatment groups with respect to known prognostic factors for hospitalization or death, patients were prospectively stratified using a Risk Assessment Score (RAS). Two levels of risk were defined: patients with an RAS≧4 (i.e., with 4 or more of the 7 risk factors) and patients with an RAS<4. Risk factors utilized were: (1) serum creatinine of >2.0 mg/dl in the preceding 30 days; (2) NYHA class IV for the preceding 60 days; (3)≧65 years old; (4) history of sustained ventricular tachycardia; (5) ischemic etiology of HF; (6) diabetes; and (7) outpatient use of nesiritide or inotropic agents in preceding 6 months.
The effect of treatment was assessed with a 2-way ANOVA, an F test, a stratified Wilcoxon test, a Wilcoxon test, or the generalized Fisher's exact test, depending on the distribution of the variable. Kaplan-Meier estimates of the survival curves for morbidity/mortality time-to-event data were calculated. A log-rank or stratified log-rank test was used for comparisons between 2 treatment groups.

aldosterone = test: FUSION I: serum aldosterone; assay type: in vivo, human
Excerpt: Surrogate measures with mechanistic implications included measures of serum aldosterone, serum endothelin-1, and serial measurements of ventricular function using ejection fractions derived from echocardiography. Pre-infusion aldosterone and endothelin-1 concentrations were collected and analyzed at a core lab (The Mayo Clinic, Rochester, Minn.) at weeks 1, 4, 8, and 12; post-infusion concentrations were collected at weeks 1 and 12. Left ventricular ejection fractions were serially measured and read at a core lab (Midwest Heart Foundation Echocardiographic Core Laboratory, Lombard, Ill.).

[2] = system: symptoms of acute decompensated HF; conditions: VMAC trial; cited from earlier work
[3] = system: patients with acutely decompensated congestive heart failure; conditions: in vivo; cited from earlier work
[4] = RAS ≧4 patients, 0.005 μg/kg/min, n = 24, through 12 weeks
[5] = RAS ≧4 patients, 0.01 μg/kg/min, n = 20, through 12 weeks
[6] = RAS ≧4 patients, both nesiritide groups, n = 44, through 12 weeks
[7] = all patients, 0.005 μg/kg/min, n = 72, through 12 weeks
[8] = all patients, 0.01 μg/kg/min, n = 69, through 12 weeks
[9] = all patients, both nesiritide groups, n = 141, through 12 weeks
[10] = baseline NYHA class IV, 0.005 μg/kg/min, n = 25
[11] = baseline NYHA class IV, 0.01 μg/kg/min, n = 22
[12] = baseline NYHA class IV, both nesiritide groups, n = 47
[13] = baseline NYHA class IV, both nesiritide groups, n = 47, p = 0.148 compared with usual care
[14] = lowest serum creatinine >2.0 mg/dL during 30 days prior to the study, 0.005 μg/kg/min, n = 13
[15] = lowest serum creatinine >2.0 mg/dL during 30 days prior to the study, 0.01 μg/kg/min, n = 14
[16] = lowest serum creatinine >2.0 mg/dL during 30 days prior to the study, both nesiritide groups, n = 27
[17] = lowest serum creatinine >2.0 mg/dL during 30 days prior to the study, both nesiritide groups, n = 27, p = 0.176 compared with usual care

## Nesiritide: a recombinant form of human B-type natriuretic peptide (BNP)
[1]; NYHA class IV status
  Hospitalizations compared with usual care: trend towards a reduction
[1]; [4]
  All-cause death and hospitalization, % of patients: 42%
  All-cause death and hospitalization, number of patients: 10
  All-cause hospitalization, % of patients: 42%
  All-cause hospitalization, number of patients: 10
  Days alive and out of hospital, 25th percentile: 74.6 days
  Days alive and out of hospital, Mean ± SD: 76.3 ± 16.8 days
  Deaths, % of patients: 4%
  Deaths, number of patients: 1
[1]; [5]
  All-cause death and hospitalization, % of patients: 65%
  All-cause death and hospitalization, number of patients: 13
  All-cause hospitalization, % of patients: 60%
  All-cause hospitalization, number of patients: 12
  Days alive and out of hospital, 25th percentile: 75.3 days
  Days alive and out of hospital, Mean ± SD: 77.2 ± 14.0 days
  Deaths, % of patients: 5%
  Deaths, number of patients: 1
[1]; [6]
  All-cause death and hospitalization, % of patients: 52%
  All-cause death and hospitalization, number of patients: 23
  All-cause hospitalization, % of patients: 50%
  All-cause hospitalization, number of patients: 22
  Days alive and out of hospital, 25th percentile: 75.0 days
  Days alive and out of hospital, Mean ± SD: 76.7 ± 15.5 days
  Deaths, % of patients: 5%
  Deaths, number of patients: 2
[1]; RAS≧4 cohort, p=0.027
  Days alive and out of the hospital compared to the usual care group: statistically significant increase
[1]; RAS≧4 patients
  Deaths or hospitalizations compared with usual care only: statistically significantly fewer
[1]; [7]
  All-cause death and hospitalization, % of patients: 46%
  All-cause death and hospitalization, number of patients: 33
  All-cause hospitalization, % of patients: 44%
  All-cause hospitalization, number of patients: 32
  Days alive and out of hospital, 25th percentile: 74.2 days
  Days alive and out of hospital, Mean ± SD: 76.1 ± 15.3 days
  Deaths, % of patients: 8%
  Deaths, number of patients: 6
[1]; [8]
  All-cause death and hospitalization, % of patients: 49%
  All-cause death and hospitalization, number of patients: 34
  All-cause hospitalization, % of patients: 48%
  All-cause hospitalization, number of patients: 33
  Days alive and out of hospital, 25th percentile: 79.0 days
  Days alive and out of hospital, Mean ± SD: 78.9 ± 10.9 days
  Deaths, % of patients: 4%
  Deaths, number of patients: 3
[1]; [9]
  All-cause death and hospitalization, % of patients: 48%
  All-cause death and hospitalization, number of patients: 67
  All-cause hospitalization, % of patients: 46%
  All-cause hospitalization, number of patients: 65
  Days alive and out of hospital, 25th percentile: 77.6 days
  Days alive and out of hospital, Mean ± SD: 77.5 ± 13.3 days
  Deaths, % of patients: 6%
  Deaths, number of patients: 9
[1]; all patients, each nesiritide dose group and all nesiritide group
  Deaths or hospitalizations compared with usual-care group: no statistically significant differences
[1]; all patients, p=0.131
  Days alive and out of the hospital compared with usual-care patients: trends for increasing days alive and out of the hospital
[1]; [10]
  Days alive and out of hospital, Mean ± SD: 73.3 ± 18.4 days
  Days alive and out of hospital, Median: 84 days
  Patient deaths, %: 8%
  Patient deaths, number: 2
  Patients hospitalized, %: 48%
  Patients hospitalized, number: 12
[1]; [11]
  Days alive and out of hospital, Mean ± SD: 77.7 ± 13.5 days
  Days alive and out of hospital, Median: 82 days
  Patient deaths, %: 5%
  Patient deaths, number: 1
  Patients hospitalized, %: 55%
  Patients hospitalized, number: 12
[1]; [12]
  Days alive and out of hospital, Median: 83 days
  Patient deaths, %: 6%
  Patient deaths, number: 3
[1]; [13]
  Patients hospitalized, %: 51%
  Patients hospitalized, number: 24
[1]; baseline NYHA class IV, both nesiritide groups, n = 47, p = 0.182 compared with usual care
  Days alive and out of hospital, Mean ± SD: 75.4 ± 16.2 days
[1]; elevated serum creatinine, >2.0 mg/dL
  Days alive and out of hospital compared to usual care alone: statistically significant increase
[1]; [14]
  Days alive and out of hospital, Mean ± SD: 75.7 ± 19.0 days
  Days alive and out of hospital, Median: 84 days
  Patient deaths, %: 8%
  Patient deaths, number: 1
  Patients hospitalized, %: 46%
  Patients hospitalized, number: 6
[1]; [15]
  Days alive and out of hospital, Mean ± SD: 78.4 ± 9.0 days
  Days alive and out of hospital, Median: 81 days
  Patient deaths, %: 7%
  Patient deaths, number: 1
  Patients hospitalized, %: 57%
  Patients hospitalized, number: 8
[1]; [16]
  Days alive and out of hospital, Median: 81 days
  Patient deaths, %: 7%
  Patient deaths, number: 2
[1]; lowest serum creatinine >2.0 mg/dL during 30 days prior to the study, both nesiritide groups, n = 27, p = 0.019 compared with usual care
  Days alive and out of hospital, Mean ± SD: 77.1 ± 14.7 days
[1]; [17]
  Patients hospitalized, %: 52%
  Patients hospitalized, number: 14
aldosterone; after the week 12 infusion, 0.01-μg/kg/min and all-nesiritide group, p<0.02 (FIG. 2A)
  Post-infusion levels of aldosterone versus baseline: significant changes from baseline
aldosterone; any treatment group
  Mean pre-infusion aldosterone values over time: no significant changes
aldosterone; week 1, 0.005-μg/kg/min
  Mean change from baseline (±standard deviation) in post-infusion aldosterone: -5.0 ± 14.8 pg/mL
aldosterone; week 1, 0.01-μg/kg/min, p=0.02 compared to baseline
  Mean change from baseline (±standard deviation) in post-infusion aldosterone: -10.9 ± 22.8 pg/mL
aldosterone; weeks 1 and 12, both nesiritide groups
  Mean post-infusion values of aldosterone versus baseline: significant declines
[2]
  Resolution of the symptoms of acute decompensated HF versus IV diuretics or nitroglycerin: more rapid resolution
[3]
  Ventricular rhythm disturbances: did not engender ventricular rhythm disturbances
